# Literature values in US20150080252A1 (Fox Chase Cancer Center, priority 2009, published 2015).
# Counter-ions that a name gives are not always drawn.
# System: metastatic and/or unresectable GIST
smiles,measurement,setting,value
"Cc1ccc(NC(=O)c2ccc(CN3CCN(C)CC3)cc2)cc1Nc1nccc(-c2cccnc2)n1 [IM, imatinib mesylate]",patients with objective responses or stable disease,metastatic and/or unresectable GIST,> 80%
same,median time to partial response (PR) (≧30% reduction),seminal phase II metastatic GIST study,16 weeks
